Values joined by “and” are separate entries in the source; they are usually repeats but may differ in a detail not shown here. Identical values can stand only once.
How the values were obtained:
[1] = target: human TrkA expressed on transfected cells (4-3.6 cells; NIH3T3-TrkA cells) (human) (UniProt P04629); assay: FACScan, 4-3.6 cells, avidin-FITC
[2] = target: human TrkA expressed on transfected cells (4-3.6 cells; NIH3T3-TrkA cells) (human) (UniProt P04629); assay: FACScan, 4-3.6 cells (p75+ TrkA+), avidin-FITC
[3] = target: p75 NGF receptor on B104 rat neuroblastoma cells and 4-3.6 cells (rat) (UniProt P07174); assay: FACScan, B104 cells (p75+ TrkA-), avidin-FITC
Chain of p75 NGF receptor on B104 rat neuroblastoma cells and 4-3.6 cells (rat) (P07174 30-425): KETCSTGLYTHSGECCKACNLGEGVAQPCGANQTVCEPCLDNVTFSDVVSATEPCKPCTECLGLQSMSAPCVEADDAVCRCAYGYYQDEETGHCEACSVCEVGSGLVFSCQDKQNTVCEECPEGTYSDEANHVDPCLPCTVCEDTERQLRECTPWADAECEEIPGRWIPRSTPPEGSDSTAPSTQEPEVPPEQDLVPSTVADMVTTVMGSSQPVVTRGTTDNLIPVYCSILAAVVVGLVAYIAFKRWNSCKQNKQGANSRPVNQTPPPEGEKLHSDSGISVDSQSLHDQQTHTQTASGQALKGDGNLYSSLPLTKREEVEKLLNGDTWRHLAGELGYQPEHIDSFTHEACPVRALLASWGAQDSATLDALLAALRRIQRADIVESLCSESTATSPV

[4] = system: septal neuronal cultures; assay: ChAT activity in septal neuronal cultures; assay type: cell-based, rat; conditions: day 8
Experimental: Cell cultures were established from the septal area of 17-day-old rat embryos. In brief, tissue was incubated in PBS containing trypsin and DNase. Tissue pieces then were mechanically dissociated. After centrifugation, the pellet was suspended in Leibovitz's L-15 medium. Cells were plated onto 96-multiwell NUNC dishes (10^5 cells/well) coated with poly-D-lysine (5 μg/ml). Pure cultures of septal neurons were treated 1 day after plating. Drugs, prepared in medium, were added directly to the cells without changing the initial medium. The incubation continued for 8 days, at which time ChAT activity was evaluated.
At day 8 of culture, the medium was aspirated, and ice-cold lysis buffer (10 mM sodium phosphate, pH 7.4/0.1% TritonX-100—Trade-mark) was added. ChAT activity assays were performed directly in the wells using Fonnum's method (Fonnum, 1975).

[5] = system: embryonic rat DRG primary neuronal cultures; assay: Cell survival (MTT), primary DRG cultures; assay type: cell-based; conditions: 8 days;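 for % Protection: 100% equals survival with optimal NGF at 1 nM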
Experimental: Fetal rat DRG primary cultures were established from Sprague Dawley day 17 rat embryos. All ganglia were dissected and dissociated first enzymatically with trypsin and then mechanically. Dissociated cells were cultured (10^5 cells/well) in 96 well plates pre-coated with collagen, and grown for a total of 8 days in Neuro Basal Medium containing N2 supplement (GIBCO, Toronto), antibiotics, and L-glutamine. These DRG cultures are ˜85% TrkA-expressing and are heavily dependent on TrkA signals for survival.
Primary DRG cultures: After a total of 8 days of culture with the indicated test or control ligands, cell survival were studied using the 3(4,5-Dimethylthiazolyl-2)-2,5-diphenyl tetrazolium bromide colorimetric (MTT) assay, and by microscopic observation.
(§1) Cell lines: 5,000 cells/well in protein-free media (PFHM-II, GIBCO, Toronto) containing 0.2% bovine serum albumin (BSA) (Crystalline fraction V, Sigma, St. Louis, Mo.) were seeded in 96 well plates (Falcon, Mississauga, Ontario). The cultures were untreated, or treated with the indicated test or control ligands. Cell viability was quantitated using the MTT assay after 56-72 hours of culture. […] The OD of untreated cells were subtracted. The higher optical density of untreated primary cultures is likely due to cellular heterogeneity and to endogenous production of limiting amounts of growth factors.

[6] = target: T1, NIH3T3 fibroblasts expressing TrkC (Homo sapiens, UniProt Q16288); assay: Cell survival (MTT), NIH-TrkC; assay type: cell-based; conditions: 72 hours
T1 construct: expressed in transfected cells; host or cells: NIH3T3 fibroblasts
T1 sequence (Q16288 32-839): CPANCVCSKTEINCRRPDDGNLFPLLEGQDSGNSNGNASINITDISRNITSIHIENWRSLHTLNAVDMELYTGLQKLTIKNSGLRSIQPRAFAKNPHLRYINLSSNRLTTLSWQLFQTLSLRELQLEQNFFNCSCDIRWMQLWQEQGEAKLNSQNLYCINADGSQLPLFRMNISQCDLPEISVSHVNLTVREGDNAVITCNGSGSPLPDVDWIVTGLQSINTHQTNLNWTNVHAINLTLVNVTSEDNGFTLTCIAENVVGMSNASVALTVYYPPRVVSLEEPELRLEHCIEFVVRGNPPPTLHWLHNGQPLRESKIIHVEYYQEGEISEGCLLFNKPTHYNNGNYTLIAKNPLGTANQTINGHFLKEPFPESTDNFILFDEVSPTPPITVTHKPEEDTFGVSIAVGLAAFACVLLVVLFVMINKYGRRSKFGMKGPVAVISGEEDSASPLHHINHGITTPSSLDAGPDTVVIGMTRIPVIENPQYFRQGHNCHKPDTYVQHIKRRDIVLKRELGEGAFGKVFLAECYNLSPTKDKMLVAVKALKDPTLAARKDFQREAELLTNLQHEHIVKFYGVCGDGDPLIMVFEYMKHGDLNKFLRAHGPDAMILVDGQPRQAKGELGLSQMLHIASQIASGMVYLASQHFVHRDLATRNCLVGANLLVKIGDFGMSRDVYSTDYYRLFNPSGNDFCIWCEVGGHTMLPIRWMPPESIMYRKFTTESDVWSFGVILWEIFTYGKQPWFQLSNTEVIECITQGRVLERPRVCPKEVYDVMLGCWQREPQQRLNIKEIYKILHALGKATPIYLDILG
Description: (§2) The 4-3.6 cells are B104 cells stably transfected with human trkA cDNA, and express equal levels of p75 and TrkA (TrkA+ p75+). For screening agents that activate or antagonize TrkC receptors, NIH3T3 fibroblasts were stably transfected with human TrkC cDNA. These cells respond to the ligand NT-3. For screening agents that activate or antagonize TrkA receptors, NIH3T3 fibroblasts were stably transfected with human TrkA cDNA. These cells respond to the ligand NGF.
as §1

[7] = system: TrkB-expressing HEK293 cells; assay: Cell survival control, TrkB-expressing HEK293 cells; assay type: cell-based
Experimental: as §1

[8] = system: B104 cells; assay: Cell survival control, B104 cells; assay type: cell-based, rat
Description: as §2, §1

[9] = Proteolytic stability, then trophic assay on 4-3.6 cells; conditions: exposure to trypsin or pepsin (D3: 1 hour)
Experimental: The proteolytic stability of D3 versus trypsin and papain was assessed. D3 was first exposed to enzymatic treatment as described previously (Saragovi et al., 1992), followed by gauging its biological activity on 4-3.6 cells.

[10] = system: wild type HEK293 cells; assay: Cell survival control, wild type HEK293 cells; assay type: cell-based
Experimental: as §1

[11] = system: wild type NIH3T3 fibroblasts; assay: Cell survival (MTT), NIH wt; assay type: cell-based; conditions: 72 hours
Description: as §2, §1

Chain of human TrkA expressed on transfected cells (4-3.6 cells; NIH3T3-TrkA cells) (human) (P04629 33-796): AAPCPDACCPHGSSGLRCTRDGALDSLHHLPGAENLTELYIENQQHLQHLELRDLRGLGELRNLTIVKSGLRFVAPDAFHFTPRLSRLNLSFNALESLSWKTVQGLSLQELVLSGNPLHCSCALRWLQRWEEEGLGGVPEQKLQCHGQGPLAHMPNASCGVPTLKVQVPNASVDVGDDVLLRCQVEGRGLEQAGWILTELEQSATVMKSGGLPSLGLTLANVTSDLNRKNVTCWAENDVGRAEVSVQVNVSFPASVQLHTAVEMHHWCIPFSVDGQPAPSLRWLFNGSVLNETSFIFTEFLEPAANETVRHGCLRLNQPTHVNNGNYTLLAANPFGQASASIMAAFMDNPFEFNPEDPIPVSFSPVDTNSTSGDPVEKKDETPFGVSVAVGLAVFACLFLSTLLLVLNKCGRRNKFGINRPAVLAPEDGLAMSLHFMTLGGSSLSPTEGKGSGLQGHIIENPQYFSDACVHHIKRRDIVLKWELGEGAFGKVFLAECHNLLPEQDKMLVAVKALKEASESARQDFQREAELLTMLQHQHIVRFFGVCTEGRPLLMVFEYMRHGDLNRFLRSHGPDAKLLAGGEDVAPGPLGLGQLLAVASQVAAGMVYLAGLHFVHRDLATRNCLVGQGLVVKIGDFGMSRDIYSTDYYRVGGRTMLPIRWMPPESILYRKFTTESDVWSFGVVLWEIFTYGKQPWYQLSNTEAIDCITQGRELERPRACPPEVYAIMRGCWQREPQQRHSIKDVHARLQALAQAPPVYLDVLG

Substance	fold fluorescence over control peptide-biotin [1] [fold]	MCF [2] [MCF]	MCF [3] [MCF]	ChAT Activity ([4]; 10 pM NGF) [pmol Ach/min/well]	ChAT Activity ([4]; 400 pM NGF) [pmol Ach/min/well]	% Protection ([5]; NGF 20 pM) [%]	Optical Density ([5]; NGF 20 pM)	% Protection ([5]; NGF 500 pM) [%]	Optical Density ([5]; NGF 500 pM)	Optical Density ([5]; NGF 1 nM)	% Protection ([5]; NGF 1 nM, relative to 1 nM NGF) [%]	NIH-TrkC % Protection ([6]; 10 pM NGF) [%]	NIH-TrkC % Protection ([6]; 1 nM NGF) [%]	protection from apoptosis [7]	protection from apoptosis [8]	biological activity in trophic assays after enzymatic treatment [9]	protection from apoptosis [10]	NIH wt % Protection ([11]; 10 pM NGF)	NIH wt % Protection ([11]; 1 nM NGF)
D3-biotin (biotin derivative of D3) (peptide)	4	53	10																
NGF: neurotrophin nerve growth factor, natural ligand of TrkA				0.42 ± 0.07	0.72 ± 0.10	9 ± 1	316 ± 11	68 ± 3	535 ± 19	823 ± 28	100 ± 4	2 ± 4	5 ± 6	neither D3 nor NGF protected	neither D3 nor NGF protected	lost all activity within minutes	neither D3 nor NGF protected	5 ± 7% and 3 ± 5%	5 ± 12% and 4 ± 6%
